From US8158623B2, “Heptacyclic compounds and the pharmaceutical uses thereof for preventing and treating diabetes and metabolic syndrome” (Shanghai Institute of Materia Medica Chinese Academy of …, priority 2007, dated 2012)
“Also recorded” adds a separate entry of the source.

Key:
[1] = test system: 3T3-L1 adipocytes; assay: Glucose uptake in 3T3-L1 adipocytes (3H-labelled 2-deoxyglucose); format: cell-based; conditions: for Glucose uptake, Mean, Compound + Insulin Group (Control Group = 1.000): 10 μM, 2 h incubation, with insulin, relative to control without insulin; for fold induction at 10 µM: Mus musculus, 3T3-L1, 2 h incubation, baseline (without insulin), relative to control, read-out: Glucose uptake, Mean, Compound Group (Control Group = 1.000)
Description: The effect of the compounds on baseline or insulin-stimulated glucose uptake was evaluated, using the model of glucose uptake in 3T3-L1 adipocytes.
Adipose tissue is the target of glucose metabolism in vivo. The sensitivity for insulin and availability of glucose in adipose tissues are tightly associated with the insulin resistance. The transportation of glucose into adipocytes is a rate-limiting step for the glucose metabolism, and also an important indicator for evaluating the sensitivity for insulin in adipose tissue. 3T3-L1 is a kind of pre-adipocyte, and can become adipocyte after differentiated completely. Therefore, 3T3-L1 is a desirable model for the glucose transport.
Pre-adipocyte, 3T3-L1 was induced to differentiate under certain conditions. After 3T3-L1 differentiated into adipocytes, the compounds of interest with different concentrations and DMSO (used as control) can be added and incubated with the adipocytes for different periods, then the glucose uptake could be determined. For evaluating the ability for a compound to stimulate glucose uptake, the baseline and insulin-induced glucose uptake were determined, and the increase in baseline and insulin-induced glucose uptake upon treatment of the compounds as compared with control group (with 0.1% DMSO) is calculated, based on the ^3H-labelled 2-deoxyglucose inside the cells.
3T3-L1 cells purchased from Karolinska Institute (Sweden) were cultured in DMEM medium containing 10% fetal calf serum at 37° C., under 5% CO2. The cells were passaged every 3-4 days. The cells were inoculated into 12-well plate. Upon confluence, culture medium containing 0.5 mM 3-isobutyl-1-methylxanthine, 0.25 μM dexamethasone and 5 μg/ml insulin was added and cultured for 3 days. Then, the culture medium was replaced by a medium containing 5 μg/ml insulin and further cultured for 3 days. The insulin was removed, and the cells had differentiated completely into mature adipocytes after 2 days which could be used to determine the glucose uptake.
23 compounds chosen by the inventors were added into the culture medium of adipocytes in a dose of 10 μM. After incubation for 2 h, the effect of the compounds on glucose uptake in 3T3-L1 cells was observed. Culture medium without compounds was used as negative control. The control group only supplemented with insulin and the experiment group supplemented with compounds plus insulin were also employed to observe the effect of the compounds on glucose uptake.

[2] = test system: AMP-Activated Protein Kinase (AMPK); assay: Phosphorylation of AMPK in HepG2 cell (Western blot); format: cell-based, Human; conditions: HepG2, 50 uM, 5 minutes, P<0.01 or P<0.05
Description: (§1) Human hepatoma carcinoma cell strain (HepG2, purchased from the cell bank of Shanghai Institute of Cell Biology of Chinese Academy) was used. The Human hepatoma carcinoma cells were passaged by 0.1% pancreatin/0.02% EDTA digestion, and cultured in a incubator at 37° C. using MEM culture medium containing 10% FBS, under 5% CO2/95%.
(§2) HepG2 cells were cultured in 6-well plates for 48 hours until 70%-80% confluence. Serum starvation was started by changing medium with MEM containing 0.5% BSA. After starvation for 6 hours, cells were treated with the compounds (final concentration of 50 uM, containing 0.25% DMSO) for 5 minutes. The culture medium was discarded, and cells were harvested and washed for twice with pre-cooled PBS. The washing liquid was discarded, and any residual PBS was blotted dry. DMSO without heptacyclic compounds was used as control.
(§3) Extraction of total cellular protein: 150 μl/well homogenizing buffer (137 mM NaCl, 2.7 mM KCl, 1 mM MgCl2, 0.5 mM Na3VO4, 1% Triton X-100, 10% Glycerol, 20 mM Tris-HCl pH 7.8, 1 ug/ml Leupeptin, 0.2 mM PMSF, 10 mM NaF, 1 ug/ml Aprotinin, 1 mM EDTA, 1 mM DTT, 5 mM Sodium pyrophosphate, 1 mM Benzamidine) was added. Cells were collected into a 1.5 ml centrifuge tube using cell scraper. Cells were homogenized using sonicator (5 W of power) for 2 times (3 seconds per time), and shaken on a shaker for 1 hour. Supernatant (i.e., total cellular protein) was collected by centrifuging at 14000 rpm for 15 min at 4° C., and stored at −70° C. until use. After the protein concentration was determined by Bradford method, the supernatant was formulated as the loading sample with final concentration of 0.6 mg/ml. The whole preparation process was performed at 4° C.
(§4) Protein Electrophoresis: After being treated at 95° C. for 5 min, the loading sample was loaded (15 μg protein/lane). The protein was separated on 7.5% SDS-acrylamide gel for 1-2 hours under the voltage of 80-120 V.
(§5) Electrotransferring the protein and blocking the membrane: After electrophoresis was finished, the protein was transferred to PVDF membrane using semi-dry transferring slot based on 0.8 mA/cm^2 membrane area under the electric current of 80 mA for 2 hours. After that, the membrane was shaken for 2 hours with 7.5% skim milk/TTBS to block the membrane.
(§6) Antigen-antibody reaction: After the blocking process was finished, the membrane was incubated with primary antibody (antibody against phosphorylated ACC (P-ACC) and antibody against phosphorylated AMPK (P-AMPK), all purchased from Cell signaling (USA), with the working concentration of 1:1000) overnight at 4° C. The membrane was removed, and the primary antibody was recovered. The membrane was washed 5 times, each for 10 min in TTBS. The membrane was shaken for 2 hours with the secondary antibody (horseradish peroxidase-conjugated goat-anti-rabbit IgG antibody, purchased from Bio-rad (USA), with the working concentration of 1:5000) at room temperature. The secondary antibody was discarded. The membrane was washed 5 times, each for 10 min in TTBS in order to remove the unbound secondary antibody.
(§7) ECL exposure and development: Luminescent agents, ECL 1, 2, were mixed homogeneously, and incubated with the membrane for 3-5 min. The membrane was removed, wrapped in preservative film, and transferred into dark room for exposure. After exposure with X-film, the film was developed, washed, recorded and conserved.
(§8) Semi-quantitative analysis was performed through optical density scan using computer image analysis system. Grey level of the protein expression was calculated. The target grey level was divided by the grey level of internal standard, and a histogram was plotted, taking the normal group as 1 unit.

[3] = test system: Acetyl CoA Carboxylase (ACC); assay: Phosphorylation of ACC in HepG2 cell (Western blot); format: cell-based, Human; conditions: HepG2, 50 uM, 5 minutes, P<0.01 or P<0.05
Description: as §1, §2, §3, §4, §5, §6, §7, §8

[4] = test system: ob/ob mice; assay: Fasting blood glucose in ob/ob mice, several heptacyclic compounds, 8 days; format: in vivo; conditions: for Fasting blood glucose change in words: dosed continuously for 8 days, P<0.05
Description: Genetic spontaneous diabetes ob/ob mice were purchased from Jackson (USA), and maintained in a SPF facility (temperature: 22-24° C., humidity: 45-80%, illumination: 150-300 Lx, 12/12-hour light/dark cycle). Fasting blood glucose was determined for 3 days continuously when the mice were 7 weeks old. The mice were grouped into the treatment group and the control group (6 animals per group) according to the results determined. The treatment groups were administered orally with compound E9, G0 and F7 (psoromic acid) (100 mg/kg), and the control group was administered orally with a solution of 0.1% Tween 80 (blank control), once daily for 8 days. Fasting blood glucose in mice was determined at the end of experiment.

[5] = oral 100 mg/kg once daily, after 8 days treatment

Structure (SMILES) | Glucose uptake, Mean, Compound + Insulin Group (Control Group = 1.000) [1] | fold induction at 10 µM [1] | Level of phosphorylation for AMPK protein versus DMSO control [2] | Level of phosphorylation for ACC protein versus DMSO control [3] | Fasting Blood Glucose ([4]; before administration) | Fasting blood glucose change in words [4] | Fasting Blood Glucose [4, 5]
CCOC(=O)c1cc(OC)c(C)c2c1Oc1c(C=O)c(O)cc(C)c1C(=O)O2 [Compound A2, 4-Formyl-3-hydroxy-8-methoxy-1,9-dimethyl-11-oxo-11H-dibenzo[b,e][1,4]dioxepine-6-carboxylic acid ethyl ester] | 3.138 | 1.37 | significant up-regulation | improved significantly |  |  | 
COc1cc(C(=O)O)c2c(c1C)OC(=O)c1c(C)cc(O)c(CO)c1O2 [Compound E9, 3-Hydroxy-4-hydroxymethyl-8-methoxy-1,9-dimethyl-11-oxo-11H-dibenzo[b,e][1,4]dioxepine-6-carboxylic acid] | 2.965 | 1.1 | significant up-regulation; also recorded: increased significantly | improved significantly | 11.99 ± 1.48 mM | reduced statistically significant | 8.68 ± 1.32 mM
CN(C)C(=N)N=C(N)N [Metformin, reference compound] |  |  |  |  | 12.27 ± 2.69 mM |  | 8.13 ± 2.76 mM
COc1cc(C(=O)O)c2c(c1C)OC(=O)c1c(C)cc(O)c(CNCCn3cccc3)c1O2 [Compound C1, 3-Hydroxy-8-methoxy-1,9-dimethyl-11-oxo-4-[(2-pyrrol-1-yl-ethylamino)-methyl]-11H-dibenzo[b,e][1,4]dioxepine-6-carboxylic acid] | 4.059 | 1.21 | increased significantly | improved significantly |  |  | 
CCCOC(=O)c1cc(OC)c(C)c2c1Oc1c(C=O)c(O)cc(C)c1C(=O)O2 [Compound A4, 4-Formyl-3-hydroxy-8-methoxy-1,9-dimethyl-11-oxo-11H-dibenzo[b,e][1,4]dioxepine-6-carboxylic acid propyl ester] | 3.449 | 1.18 | significant up-regulation | improved significantly |  |  | 
CCN(CC)C(=O)c1cc(OC)c(C)c2c1Oc1c(C=O)c(O)cc(C)c1C(=O)O2 [AB5, 4-Formyl-3-hydroxy-8-methoxy-1,9-dimethyl-11-oxo-11H-dibenzo[b,e][1,4]dioxepine-6-carboxylic acid diethylamide] | 1.755 | 1.29 | increased significantly | improved significantly |  |  | 
COc1cc(C(=O)NCc2ccccc2)c2c(c1C)OC(=O)c1c(C)cc(O)c(C=NCc3ccccc3)c1O2 [AB6, 4-(Benzylimino-methyl)-3-hydroxy-8-methoxy-1,9-dimethyl-11-oxo-11H-dibenzo[b,e][1,4]dioxepine-6-carboxylic acid benzylamide] | 1.432 | 1.14 | increased significantly | improved significantly |  |  | 
CCOCc1c(O)c(C(=O)O)c(C)c2c1OC(=O)c1c(C)cc(O)c(C=O)c1O2 [Compound G0, 9-Ethoxymethyl-4-formyl-3,8-dihydroxy-1,6-dimethyl-11-oxo-11H-dibenzo[b,e][1,4]dioxepine-7-carboxylic acid] | 1.297 | 1.22 | increased significantly | improved significantly | 11.95 ± 1.49 mM | reduced statistically significant | 8.07 ± 1.07 mM
COc1cc(C(=O)O)c2c(c1C)OC(=O)c1c(C)cc(O)c(CNc3ccccc3)c1O2 [Compound B9, 3-Hydroxy-8-methoxy-1,9-dimethyl-11-oxo-4-phenylaminomethyl-11H-dibenzo[b,e][1,4]dioxepine-6-carboxylic acid] | 2.824 | 1.16 | increased significantly | improved significantly |  |  | 
COc1cc(C(=O)O)c2c(c1C)OC(=O)c1c(C)cc(O)c(CNCCN3CCOCC3)c1O2 [Compound C7, 3-Hydroxy-8-methoxy-1,9-dimethyl-4-[(2-morpholin-4-yl-ethylamino)-methyl]-11-oxo-11H-dibenzo[b,e][1,4]dioxepine-6-carboxylic acid] | 3.610 | 1.22 | increased significantly | improved significantly |  |  | 
